# Laboratory results reported in US20240382499A1, “INDUCERS OF SENESCENCE, IN COMBINATION WITH A SELECTIVE DEATH RECEPTOR 5 (DR5) AGONIST, FOR USE IN A METHOD OF TREATING CANCER” (Stichting Het Nederlands Kanker Instituut-Antoni van …, priority 2021, published 2024).
# Legend:
# [1] = system: Alisertib induced senescent and proliferating A549, H2030, H358, HCT116, MDA-MB-231 and MCF-7 cells; experiment: Viability of alisertib-induced senescent versus proliferating cancer cell line panel (CellTiter-Blue dose response, Incucyte, colony formation); assay type: cell-based
# Experimental: FIG. 2: (A) Western blot analysis of DR4, DR5, cFLIP in A549 cells treated with different senescence inducers for 1 week. VINC served as loading control. (B) A549 cells were firstly treated with 0.5 μM alisertib for 7 days to induce senescence. Afterwards, the senescent cells were suspended from alisertib, re-seeded in a 96-well plate then switched to 200 ng/ml recombinant Lz-TRAIL. The growth curves were measured by Incucyte cell proliferation assay. (C) Alisertib induced senescent and proliferating A549, H2030, H358, HCT116, MDA-MB-231 and MCF-7 cells were seeded into a 384-well plate and treated with Lz-TRAIL for 120 hrs. Cell viability were measured using CellTiter-Blue to generate dose response curve. (D) Senescence associated beta-galactosidase (SA-β-gal) staining in a cell line panel after treated with 0.5 μM alisertib for one week. (E) Cell viability […] was assessed by colony formation assay in the cell line panel. The cells were firstly treated with 0.5 μM alisertib for 7 days to induce senescence. […]
# FIG. 3: (A) Human NF-kB pathway protein array analysis on the senescent A549 cells generated with 0.5 μM alisertib for 7 days. […] (C) Cell viability was assessed by colony formation assay in the A549 cells lentiviral shRNAs against DR4 or DR5. […] Cell viability were measured using CellTiter-Blue to generate dose response curve.
# Hep1 liver cancer cells = experiment: Tumor growth of Hep1 xenografts in Balb/c nude mice; assay type: in vivo; settings: Hep1 xenograft; 30 mg/kg alisertib oral gavage, 5 μg conatumumab intraperitoneal, week days
# Experimental: (§1) FIG. 4: (A) Tumor growth of Hep1 parental cells in the flanks of Balb/c nude mice subcutaneously injected with 1*10^7 cells. When tumors reached approximately 200 mm^3, assigned to either control, 30 mg/kg alisertib (oral gavage), 5 μg conatumumab (intraperitoneal injection) and the combination. The drugs were administrated during week days and suspended during the weekend. (B) Tumor growth of A549 parental cells in the flanks of Balb/c nude mice subcutaneously injected with 5*10^6 cells. When tumors reached approximately 200 mm3, assigned to either control, 30 mg/kg alisertib (oral gavage), 10 μg conatumumab (intraperitoneal injection) and the combination. The drugs were administrated during week days and suspended during the weekend. (C-E) Cell viability was assessed by colony formation assay in the A549 and Hep1 cells. The cells were firstly treated with different senescence inducers for 7 days to induce senescence. Afterwards, the senescent cells were suspended from the senescence inducers then re-seeded in a 12-well plate and switched to conatumumab or Lz-TRAIL treatment for 5 days. Proliferating cells were taken as a control. At the end of assay, cells were fixed, stained, and photographed.
# (§2) To test the treatment in vivo, we engrafted Hep1 liver cancer cells and A549 lung cancer cells into immunodeficient nude mice. […]
# A549 lung cancer cells = experiment: Tumor growth of A549 xenografts in Balb/c nude mice; assay type: in vivo; settings: A549 xenograft; 30 mg/kg alisertib oral gavage, 10 μg conatumumab intraperitoneal, week days
# Experimental: as §1, §2
# [2] = system: senescent A549 and Hep1 cells; experiment: Colony formation of A549 and Hep1 cells made senescent with other senescence inducers; assay type: cell-based; settings: A549 and Hep1 made senescent with PLk4 inhibitor, etoposide and barasertib; treatment 5 days
# Experimental: as §1
# [3] = system: proliferating and senescent A549 and Hep1 cells; experiment: Colony formation of proliferating and therapy-induced senescent A549 and Hep1 cells with NEO2734 and conatumumab; assay type: cell-based
# Experimental: FIG. 8: Cell viability was assessed by colony formation assay using low doses of NEO2734 and conatumab. (A) Cell viability was assessed by a colony formation assay using low dose 0.25 μM of NEO2734 and 0.125 μg/ml conatumumab on Hep1 cells made senescent by one-week treatment of 0.5 μM alisertib, 1 μM barasertib, 50 nM CFI-400945 or 2 μM Etoposide. (B) Colony formation using low dose 0.25 μM of NEO2734 and 0.125 μg/ml conatumumab on Hep1, 0.25 μM of NEO2734 and 1 μg/ml conatumumab on A549 cells made senescent by one-week treatment of different senescence inducers (0.5 μM PF-06873600, 100 nM doxorubicin, 1 μM TAS-119 or combination of 5 nM trametinib plus 0.5 μM palbociclib.
# Cells were treated with 0.5 μM alisertib for 7 days to induce senescence. These cells were seeded into 12 well plates. After 24 hours, the cells were treated with 0.5 μM NEO 2734 and indicated doses of conatumumab for 96 hours. Cells were fixed with 4% paraformaldehyde after 96 hours of drug treatment. The plates were stained with 2 mL 0.5% (w/v) crystal violet in H2O and photographed. Further, colony formation was investigated using 0.25 μM of NEO2734 and 0.125 μg/ml conatumumab on Hep1 cells made senescent by one-week treatment of 0.5 μM alisertib, 1 μM barasertib, 50 nM CFI-400945 or 2 μM Etoposide. Furthermore, colony formation was investigated using 0.25 μM of NEO2734 and 1 μg/ml conatumumab on A549 cells made senescent by one-week treatment of different senescence inducers, namely 0.5 μM PF-06873600, 100 nM doxorubicin or combination of 5 nM trametinib plus 0.5 μM palbociclib. Doxorubicin, PF-06873600, palbociclib and trametinib were purchased from Selleckchem (Houston, TX, USA).
# senescent cells = experiment: Killing of senescent cells by conatumumab in vitro, time; assay type: cell-based
# TNFRSF10B (DR5), DR4 = experiment: RNA sequencing of a senescent cell line panel, death receptor expression; assay type: cell-based; settings: data not shown
# Experimental: RNA sequencing was performed on A549 cells treated with 0.5 alisertib μM for 1 week, and followed by gene set enrichment analysis (GSEA) of alisertib treated cells versus untreated control for multiple independent NF-KB signaling gene sets. (B) Real-time PCR analysis of DR4, DR5, cFLIP, TRAIL in A549 cells treated with 0.5 μM alisertib, 100 nM CFI-400945 and 2 μM Etoposide. GAPDH served as control.
# PC9, Hep1 and A549 = settings: 0.5 microgram/ml conatumumab
# Experimental: FIG. 7: (A) Cell viability for the BRD2 inhibitor iBET in the presence of 0.5 microgram/ml conatumumab. […] Cells were seeded into 384 well plates. Drugs were added after 24 hours. Cell viability was measured using cell titer blue after 96 hours of drug treatment.
# [4] = system: PC9, TFK, EGI and Hep 1 cancer cells, and BJ and Rpe1 primary cells; experiment: Dose-response curves (cell titer blue) for NEO2734 in the presence of conatumumab; assay type: cell-based, human; settings: 0.5 microgram/ml conatumumab, 96 hours
# Description: FIG. 6: (A) Dose-response curves determined by cell viability using cell titer blue for NEO2734 in the presence of 0.5 microgram/ml conatumumab. Shown are dose response curves for PC9, TFK, EGI and Hep 1 cancer cells, and BJ and Rpe1 primary cells. (B) RNA sequencing results.
# PC9 human lung cancer cells, Panc1 human pancreatic cancer cell line of ductal cell origin, Hep3B human epithelial hepatoma cells, H1975 human epithelial lung cancer cells, TFK bile duct cancer cells, EGI bile duct cancer cells, BJ human foreskin fibroblast cells and Rpe1 human retina pigmented epithelial cells were obtained from ATCC.
# Cells were seeded into 384 well plates. Drugs were added after 24 hours.
# To validate this finding, a BRD2 inhibitor, NEO2734, was used to combine with a DR5 activation antibody (conatumumab) and to test the combination in multiple cancer models, including a pancreatic cancer line of ductal cell origin Panc1, two epithelial hepatoma cell lines Hep3B and Hep1, two bile duct cancer cell lines TFK and EGI, two epithelial cancer lines PC9 and H1975. In addition, two primary cell lines BJ and Rpe1 were used to determine whether this drug combination would be less harmful to healthy cells.
# cFLIP (CFLAR) = experiment: RNA sequencing of NEO2734 treated cells; assay type: cell-based; settings: 0.5 μM NEO2734 for 1 week; PC9, TFK, EGI and Hep1
# Experimental: RNA sequencing was performed on PC9, Hep1, EGI and TFK cells treated with 0.5 μM NEO2734 for 1 week. The expression changes of cFLIP and TNFRSF10B (DR5) were plotted.
# To investigate the mechanism of this synergy effect from this drug combination, RNA sequencing was performed on NEO2734 treated cells (using four independent cell models PC9, TFK, EGI and Hep1) to identify genes that might be critical for the DR5 signaling pathway. […] This might explain why BRD2 inhibition may enhance the responsiveness of conatumumab.
compound,measurement,setting,value
"conatumumab: DR5 agonistic IgG1 antibody; purchased from Creative Biolabs, or generated by expression of SEQ 1 and SEQ 3",killing of senescent versus proliferating cells (cell viability),"[1]; alisertib 0.5 μM 7 days induced senescence, treatment 120 hrs, lung, breast, colon and liver cancer models",selective killing of senescent cells
same,tumor growth,Hep1 liver cancer cells,limited tumor growth inhibition
same,tumor growth,A549 lung cancer cells,limited tumor growth inhibition
same,senolytic effect (colony formation),[2],strong senolytic effect
same,dosage that will not lead to a significant impact on alisertib induced senescent cells,"[3]; A549, titration",1 µg/mL
same,dosage that will not lead to a significant impact on alisertib induced senescent cells,"[3]; Hep1, titration",0.125 µg/mL
same,time in which senescent cells are killed,senescent cells,24 h
CC1(C)CCC(c2ccc(Cl)cc2)=C(CN2CCN(c3ccc(C(=O)NS(=O)(=O)c4ccc(N[C@H](CCN5CCOCC5)CSc5ccccc5)c(S(=O)(=O)C(F)(F)F)c4)cc3)CC2)C1 [ABT-263],"senolytic effect in cell line panel (colony formation), TRAIL compared with ABT-263","[1]; alisertib-induced senescent cells, 12-well plate",resistant
"COc1cc([C@@H]2c3cc4c(cc3[C@@H](O[C@@H]3O[C@@H]5CO[C@@H](C)O[C@H]5[C@H](O)[C@H]3O)[C@H]3COC(=O)[C@H]23)OCO4)cc(OC)c1O [etoposide, (5S,5aR,8aR,9R)-5-[[(2R,4aR,6R,7R,8R,8aS)-7,8-dihydroxy-2-methyl-4,4a,6,7,8,8a-hexahydropyrano[3,2-d][1,3]dioxin-6-yl]oxy]-9-(4-hydroxy-3,5-dimethoxyphenyl)-5a,6,8a,9-tetrahydro-5H-[2]benzofuro[6,5-f][1,3]benzodioxol-8-one]",DR4 expression in induced senescent cells,"TNFRSF10B (DR5), DR4",not DR4
same,TNFRSF10B (DR5) expression in induced senescent cells,"TNFRSF10B (DR5), DR4",upregulated
"COc1cc(Nc2ncc3c(n2)-c2ccc(Cl)cc2C(c2c(F)cccc2OC)=NC3)ccc1C(=O)O [alisertib, 4-[[9-chloro-7-(2-fluoro-6-methoxyphenyl)-5H-pyrimido[5,4-d][2]benzazepin-2-yl]amino]-2-methoxybenzoic acid]",tumor growth,Hep1 liver cancer cells,limited tumor growth inhibition
same,tumor growth,A549 lung cancer cells,limited tumor growth inhibition
same,DR4 expression in induced senescent cells,"TNFRSF10B (DR5), DR4",not DR4
same,TNFRSF10B (DR5) expression in induced senescent cells,"TNFRSF10B (DR5), DR4",upregulated
iBET,effect on conatumumab responsiveness (cell viability),"PC9, Hep1 and A549",efficiently enhance the responsiveness of conatumumab
"Cc1cc(-c2ccc3nc(C4CCOCC4)n(CCOC(F)(F)F)c3c2)cn(C)c1=O [NEO2734, 1,3-dimethyl-5-[2-(oxan-4-yl)-3-[2-(trifluoromethoxy)ethyl]benzimidazol-5-yl]pyridin-2-one]",effect on conatumumab responsiveness in primary cells (cell viability),[4]; BJ and Rpe1 primary cells,not in primary cells
same,effect on conatumumab responsiveness in cancer cells (cell viability),[4]; cancer cells,enhance the conatumumab responsiveness
same,cFLIP (CFLAR) expression change,cFLIP (CFLAR),highly down-regulated
same,effect on senolytic effect of DR5 activation (colony formation),[3]; alisertib-induced senescent and proliferating A549 (1 μg/ml conatumumab) and Hep1 (0.125 μg/ml conatumumab),improve the senolytic effect of DR5 activation
